≈ marks a conversion by molar mass, not a printed value. Like-named read-outs stand apart in the source and are kept apart here.
Tests used:
Mtb H37Ra^lux = assay: microbe, parasite or virus in culture; type: cell-based, Mycobacterium tuberculosis; conditions: for IC50: read-out: Mtb H37Ra^lux IC50; for MIC: read-out: Mtb H37Ra^lux IC90 (MIC)
in vitro = conditions: human
[1] = test system: MRC-5 lung fibroblast cell line
M. intracellulare = assay: microbe, parasite or virus in culture; type: cell-based, Mycobacterium intracellulare; conditions: Mycobacterium intracellulare, 168 h, read-out: IC50 M. intracellulare
M. avium subsp. avium = assay: microbe, parasite or virus in culture; type: cell-based, Mycobacterium avium subsp. avium; conditions: Mycobacterium avium, 168 h, read-out: IC50 M. avium subsp. avium
M. abscessus = assay: microbe, parasite or virus in culture; type: cell-based, Mycobacterium abscessus; conditions: Mycobacteroides abscessus, 72 h, read-out: IC50 M. abscessus
[2] = Mycobacterium tuberculosis, H37RA, 168 h

| Compound | IC50 (Mtb H37Ra^lux; [2]) [µM] | MIC (Mtb H37Ra^lux; [2]) [µM] | CC50 (in vitro) [µM] | T.I. CC50/IC50 [1] | IC50 (M. intracellulare) [µM] | IC50 (M. avium subsp. avium) [µM] | IC50 (M. abscessus) [µM] | Mtb H37Ra^lux IC90 (MIC) (Mtb H37Ra^lux) [µM] | IC50 (Mtb H37Ra^lux) [µM] |
| --- | --- | --- | --- | --- | --- | --- | --- | --- | --- |
| Cc1nc2sc3ccccc3n2c1C(=O)N1CCN(CCn2cc(-c3ccc(C(C)(C)C)cc3)nn2)CC1 [IT13, (4-(2-(4-(4-(tert-Butyl)-phenyl)-1H-1,2,3-triazol-1-yl)-ethyl)-piperazin-1-yl)(2-methylbenzo-[d]-imidazo-[2,1-b]-thiazol-3-yl)-methanone] | 3.19 | 7.24 (≈ 3.82 µg/mL) | 43.7 | 13.7 | > 128 | 17.1 | > 128 | – | – |
| Cc1nc2sc3ccccc3n2c1C(=O)N1CCN(CCn2cc(C3CC3)nn2)CC1 [IT18, (4-(2-(4-Cyclopropyl-1H-1,2,3-triazol-1-yl)-ethyl)-piperazin-1-yl)(2-methylbenzo-[d]-imidazo-[2,1-b]-thiazol-3-yl)-methanone] | 29.1 | 63.8 (≈ 27.8 µg/mL) | – | – | – | – | – | – | – |
| Cc1nc2sccn2c1C(=O)N1CCN(CCn2cc(COc3ccc(Cl)cn3)nn2)CC1 [IT05, (4-(2-(4-(((5-Chloropyridin-2-yl)-oxy)-methyl)-1H-1,2,3-triazol-1-yl)ethyl)-piperazin-1-yl)(6-methylimidazo-[2,1-b]-thiazol-5-yl)-methanone] | 49.6 | > 128 | – | – | – | – | – | – | – |
| NNC(=O)c1ccncc1 [INH, isoniazid, reference compound] | 0.04 | 0.09 (≈ 0.0123 µg/mL) | – | – | – | – | – | – | – |
| Cc1nc2sc3ccccc3n2c1C(=O)N1CCN(CCn2cc(-c3ccccc3)nn2)CC1 [IT15, (2-Methylbenzo-[d]-imidazo-[2,1-b]-thiazol-3-yl)(4-(2-(4-phenyl-1H-1,2,3-triazol-1-yl)-ethyl)-piperazin-1-yl)-methanone] | 12.2 | 27.2 (≈ 12.8 µg/mL) | – | – | – | – | – | – | – |
| CCCCc1cn(CCN2CCN(C(=O)c3c(C)nc4sccn34)CC2)nn1 [IT01, (4-(2-(4-Butyl-1H-1,2,3-triazol-1-yl)-ethyl)-piperazin-1-yl)(6-methylimidazo-[2,1-b]-thiazol-5-yl)-methanone] | 6.12 | 52 (≈ 20.9 µg/mL) | – | – | – | – | – | – | – |
| Cc1nc2sccn2c1C(=O)N1CCN(Cc2cn(-c3ccccc3Cl)nn2)CC1 [IT26, (4-((1-(2-Chlorophenyl)-1H-1,2,3-triazol-4-yl)-methyl)-piperazin-1-yl)(6-methylimidazo-[2,1-b]-thiazol-5-yl)-methanone] | 30.2 | 62.1 (≈ 27.5 µg/mL) | – | – | – | – | – | – | – |
| CC/C(=C(\c1ccccc1)c1ccc(OCCN(C)C)cc1)c1ccccc1 [Tamoxifen, reference compound] | – | – | 12.4 | – | – | – | – | – | – |
| CCCCCCCCCc1cn(CCN2CCN(C(=O)c3c(C)nc4sc5ccccc5n34)CC2)nn1 [IT14, (2-methylbenzo-[d]-imidazo-[2,1-b]-thiazol-3-yl)(4-(2-(4-nonyl-1H-1,2,3-triazol-1-yl)-ethyl)-piperazin-1-yl)-methanone] | 13.1 | 28 (≈ 14.6 µg/mL) | – | – | – | – | – | – | – |
| Cc1nc2sccn2c1C(=O)N1CCN(Cc2cn(-c3ccc(F)c(Cl)c3)nn2)CC1 [IT22, (4-((1-(3-Chloro-4-fluorophenyl)-1H-1,2,3-triazol-4-yl)-methyl)-piperazin-1-yl)(6-methylimidazo-[2,1-b]-thiazol-5-yl)-methanone] | 5.28 | 57.8 (≈ 26.6 µg/mL) | – | – | – | – | – | – | – |
| CCCCc1cn(CCN2CCN(C(=O)c3c(C)nc4sc5ccccc5n34)CC2)nn1 [IT12, (4-(2-(4-Butyl-1H-1,2,3-triazol-1-yl)-ethyl)-piperazin-1-yl)(2-methylbenzo-[d]-imidazo-[2,1-b]-thiazol-3-yl)-methanone] | 43.7 | 62.8 (≈ 28.3 µg/mL) | – | – | – | – | – | – | – |
| Cc1nc2sccn2c1C(=O)N1CCN(CCn2cc(C3CC3)nn2)CC1 [IT19, (4-(2-(4-Cyclopropyl-1H-1,2,3-triazol-1-yl)-ethyl)-piperazin-1-yl)(6-methylimidazo-[2,1-b]-thiazol-5-yl)-methanone] | > 128 | > 128 | – | – | – | – | – | – | – |
| Cc1nc2sc3ccccc3n2c1C(=O)N1CCN(Cc2cn(-c3cccc([N+](=O)[O-])c3)nn2)CC1 [IT08, (2-Methylbenzo-[d]-imidazo-[2,1-b]-thiazol-3-yl)(4-((1-(3-nitrophenyl)-1H-1,2,3-triazol-4-yl)-methyl)-piperazin-1-yl)-methanone] | 2.96 | 11.8 (≈ 5.94 µg/mL) | > 128 | 43.2 | > 128 | > 128 | > 128 | – | – |
| Cc1ccc(-n2cc(CN3CCN(C(=O)c4c(C)nc5sccn45)CC3)nn2)cc1C [IT24, (4-((1-(3,4-Dimethylphenyl)-1H-1,2,3-triazol-4-yl)-methyl)-piperazin-1-yl)(6-methylimidazo-[2,1-b]-thiazol-5-yl)-methanone] | 19.8 | 48.8 (≈ 21.2 µg/mL) | – | – | – | – | – | – | – |
| CCCCCCCCCc1cn(CCN2CCN(C(=O)c3c(C)nc4sccn34)CC2)nn1 [IT03, (6-Methylimidazo-[2,1-b]-thiazol-5-yl)(4-(2-(4-nonyl-1H-1,2,3-triazol-1-yl)-ethyl)-piperazin-1-yl)-methanone] | 2.88 | 10.2 (≈ 4.82 µg/mL) | 45.5 | 15.8 | 63.4 | > 128 | > 128 | – | – |
| Cc1nc2sccn2c1C(=O)N1CCN(Cc2cn(-c3ccc(Br)cc3)nn2)CC1 [IT21, (4-((1-(4-Bromophenyl)-1H-1,2,3-triazol-4-yl)-methyl)-piperazin-1-yl)(6-methylimidazo-[2,1-b]-thiazol-5-yl)-methanone] | 20.7 | 53 (≈ 25.8 µg/mL) | – | – | – | – | – | – | – |
| Cc1nc2sc3ccccc3n2c1C(=O)N1CCN(Cc2cn(-c3cccc(Cl)c3)nn2)CC1 [IT11, (4-((1-(3-Chlorophenyl)-1H-1,2,3-triazol-4-yl)-methyl)-piperazin-1-yl)(2-methylbenzo-[d]-imidazo-[2,1-b]-thiazol-3-yl)-methanone] | 3.86 | 14.5 (≈ 7.11 µg/mL) | 29.4 | 7.6 | 98.8 | 100 | > 128 | – | – |
| Cc1nc2sc3ccccc3n2c1C(=O)N1CCN(Cc2cn(-c3ccc([N+](=O)[O-])cc3)nn2)CC1 [IT10, (2-Methylbenzo-[d]-imidazo-[2,1-b]-thiazol-3-yl)(4-((1-(4-nitrophenyl)-1H-1,2,3-triazol-4-yl)-methyl)-piperazin-1-yl)-methanone] | 2.32 | 7.05 (≈ 3.54 µg/mL) | > 128 | 55.2 | > 128 | > 128 | > 128 | – | – |
| Cc1nc2sc3ccccc3n2c1C(=O)N1CCN(Cc2cn(-c3ccc(Cl)cc3Cl)nn2)CC1 [IT06, (4-((1-(2,4-Dichlorophenyl)-1H-1,2,3-triazol-4-yl)-methyl)-piperazin-1-yl)(2-methylbenzo-[d]-imidazo-[2,1-b]-thiazol-3-yl)-methanone] | 2.03 | 15.2 (≈ 8.01 µg/mL) | – | – | – | – | – | – | – |
| Cc1nc2sccn2c1C(=O)N1CCN(CCn2cc(-c3ccccc3)nn2)CC1 [IT20, (6-Methylimidazo-[2,1-b]-thiazol-5-yl)(4-(2-(4-phenyl-1H-1,2,3-triazol-1-yl)-ethyl)-piperazin-1-yl)-methanone] | 20.6 | 54.9 (≈ 23.2 µg/mL) | – | – | – | – | – | – | – |
| Cc1nc2sccn2c1C(=O)N1CCN(CCn2cc(CSc3nc4ccccc4[nH]3)nn2)CC1 [IT04, (4-(2-(4-(((1H-Benzo-[d]-imidazole-2-yl)-thio)-methyl)-1H-1,2,3-triazol-1-yl)-ethyl)-piperazin-1-yl)(6-methylimidazo-[2,1-b]-thiazol-5-yl)-methanone] | 3.94 | 14.6 (≈ 7.41 µg/mL) | > 128 | 32.5 | > 128 | > 128 | > 128 | – | – |
| COc1cccc(-n2cc(CN3CCN(C(=O)c4c(C)nc5sccn45)CC3)nn2)c1 [IT27, (4-((1-(3-Methoxyphenyl)-1H-1,2,3-triazol-4-yl)-methyl)-piperazin-1-yl)(6-methylimidazo-[2,1-b]-thiazol-5-yl)-methanone] | 46 | 98.1 (≈ 42.9 µg/mL) | – | – | – | – | – | – | – |
| Cc1ccc(-n2cc(CN3CCN(C(=O)c4c(C)nc5sc6ccccc6n45)CC3)nn2)cc1C [IT09, (4-((1-(3,4-Dimethylphenyl)-1H-1,2,3-triazol-4-yl)-methyl)-piperazin-1-yl)(2-methylbenzo-[d]-imidazo-[2,1-b]-thiazol-3-yl)-methanone] | 3.46 | 13.5 (≈ 6.55 µg/mL) | > 128 | 37.0 | > 128 | > 128 | > 128 | – | – |
| Cc1nc2sccn2c1C(=O)N1CCN(Cc2cn(-c3ccc([N+](=O)[O-])cc3)nn2)CC1 [IT25, (6-Methylimidazo-[2,1-b]-thiazol-5-yl)(4-((1-(4-nitrophenyl)-1H-1,2,3-triazol-4-yl)-methyl)-piperazin-1-yl)-methanone] | 23.1 | 51.4 (≈ 23.2 µg/mL) | – | – | – | – | – | – | – |
| Cc1nc2sccn2c1C(=O)N1CCN(Cc2cn(-c3cccc([N+](=O)[O-])c3)nn2)CC1 [IT23, (6-Methylimidazo-[2,1-b]-thiazol-5-yl)(4-((1-(3-nitrophenyl)-1H-1,2,3-triazol-4-yl)-methyl)-piperazin-1-yl)-methanone] | 43.8 | 84.8 (≈ 38.4 µg/mL) | – | – | – | – | – | – | – |
| COc1cccc(-n2cc(CN3CCN(C(=O)c4c(C)nc5sc6ccccc6n45)CC3)nn2)c1 [IT07, (4-((1-(3-Methoxyphenyl)-1H-1,2,3-triazol-4-yl)-methyl)-piperazin-1-yl)(2-methylbenzo-[d]-imidazo-[2,1-b]-thiazol-3-yl)-methanone] | 7.27 | 15.4 (≈ 7.49 µg/mL) | – | – | – | – | – | – | – |
| (4-(2-(4-((5-Chloropyridin-2-yl)oxy)-1H-1,2,3-triazol-1-yl)-ethyl)-piperazin-1-yl)(2-methylbenzo-[d]-imidazo-[2,1-b]-thiazol-3-yl)-methanone [IT17] | – | – | – | – | – | – | – | 115.57 | 19.7 |
